# Experiments:
# [1] = molecular target: T1, dengue virus envelope protein 2 (DENV2) (Dengue virus type 2, UniProt P29990); test: SPR binding study of GlcA glycodendrimers on immobilized DENV2 (Biacore 3000, CM4 chip); parameters: species or system dengue virus serotype 2; conditions: for SPR binding response: GD flowed at 100 μM over immobilized DENV2; for Kd: read-out: dissociation constant KD, steady-state analysis of SPR, 1:1 Langmuir model, immobilized DENV2, 25 °C
# T1 construct: Dengue virus envelope protein 2 (DENV2) was purchased from the Native Antigen Company; purchased Native Antigen Company
# Procedure: In order to evaluate the ability of GDs 4a–f, 9a–c, and 12a–c to interact with dengue virus envelope protein 2 (DENV2), an SPR binding study was carried out.
# Compounds 4a–f, 9a–c, and 12a–c were flowed on immobilized DENV2 at a concentration of 100 μM (Figure 1).
# Dengue virus envelope protein 2 (DENV2) was purchased from the Native Antigen Company. SPR sensor chips CM4 (carboxymethylated dextran) and other reagents used in SPR experiments were purchased from GE Healthcare. SPR experiments were performed with a Biacore 3000.
# SPR experiments were performed at 25 °C with a Biacore 3000 (GE Healthcare). PBST (10 mm phosphate, pH 7.40, 150 mm NaCl, and 0.005% v/v surfactant P20) was used as a running buffer. A solution with the dengue virus serotype 2 protein (DENV2) was adjusted to 20 μg/mL in 10 mM citrate pH 4.00 buffer, and the protein was immobilized in flow cell 1 of a CM4 sensor chip by following the amine coupling method according to the manufacturer’s instructions. Prior to injection over the sensor chip, DENV2 was mixed with a 4-fold molar excess of HS, for 30 min at 4 °C, to protect the GAG-binding domains of the envelope protein. The immobilization response was 2000 RU, and then, the sensor surface was washed with 1 M NaCl to remove the bound HS. Sensor chip flow cell 2 was activated, blocked, and used as a reference surface. Blank samples and concentration series were injected on a CM4 chip at a flow rate of 40 μL/min for 180 s, and dissociation was registered for 180 s.
# Initially, compounds 4a–f, 9a–c, and 12a–c were flowed on the immobilized DENV2 at a 100 μM concentration. Then different concentration of GDs (5–125 μM) were flowed on the immobilized DENV2 (compound 12b: 5–125 μM; 12c: 5–150 μM; 9b: 25–250 μM; 4c: 25-250 μM).25–250 μM). Data processing and analysis were carried out with Biaevaluation v.4.1.1 (GE Healthcare).
# All signals were blank-subtracted, reference-corrected, and globally adjusted to an adequate kinetic model to obtain binding parameters. […] Instead, a steady-state analysis kinetic analysis was carried out assuming the 1:1 Langmuir model. The value of KA is obtained by fitting a plot of RU in the plateau region against the GD concentration, which generates the following equations. [drawing 1] [drawing 2] [drawing 3] [drawing 4] KD is calculated as the inverse of KA (KD = 1/KA).
# [2] = molecular target: DENV2 envelope protein; conditions: SPR, same experimental conditions as current study; cited from earlier work
Compound,SPR binding response [1] [RU],Kd [1] [nM],fold difference of KD of heparin versus GDs 12b and 12c ([1]; heparin KD 56 nM vs 12b and 12c KD),Kd [2] [nM]
O=C(O)[C@H]1O[C@@H](OCCCn2cc(COc3cc(OCc4cn(CCCO[C@@H]5O[C@H](C(=O)O)[C@@H](O)[C@H](O)[C@H]5O)nn4)cc(OCc4cn(CCCO[C@@H]5O[C@H](C(=O)O)[C@@H](O)[C@H](O)[C@H]5O)nn4)c3)nn2)[C@H](O)[C@@H](O)[C@@H]1O [4c],60.8,,,
O=C(O)[C@H]1O[C@@H](OCCCn2cc(COc3cc4c5cc(OCc6cn(CCCO[C@@H]7O[C@H](C(=O)O)[C@@H](O)[C@H](O)[C@H]7O)nn6)c(OCc6cn(CCCO[C@@H]7O[C@H](C(=O)O)[C@@H](O)[C@H](O)[C@H]7O)nn6)cc5c5cc(OCc6cn(CCCO[C@@H]7O[C@H](C(=O)O)[C@@H](O)[C@H](O)[C@H]7O)nn6)c(OCc6cn(CCCO[C@@H]7O[C@H](C(=O)O)[C@@H](O)[C@H](O)[C@H]7O)nn6)cc5c4cc3OCc3cn(CCCO[C@@H]4O[C@H](C(=O)O)[C@@H](O)[C@H](O)[C@H]4O)nn3)nn2)[C@H](O)[C@@H](O)[C@@H]1O [4e],0.0,,,
O=C(O)[C@H]1O[C@@H](OCCCn2cc(COc3cc(COCc4cc(OCc5cn(CCCO[C@@H]6O[C@H](C(=O)O)[C@@H](O)[C@H](O)[C@H]6O)nn5)c(OCc5cn(CCCO[C@@H]6O[C@H](C(=O)O)[C@@H](O)[C@H](O)[C@H]6O)nn5)c(OCc5cn(CCCO[C@@H]6O[C@H](C(=O)O)[C@@H](O)[C@H](O)[C@H]6O)nn5)c4)cc(OCc4cn(CCCO[C@@H]5O[C@H](C(=O)O)[C@@H](O)[C@H](O)[C@H]5O)nn4)c3OCc3cn(CCCO[C@@H]4O[C@H](C(=O)O)[C@@H](O)[C@H](O)[C@H]4O)nn3)nn2)[C@H](O)[C@@H](O)[C@@H]1O [9b],68.5,1750,,
O=C(O)[C@H]1O[C@@H](OCCCn2cc(COc3cc(COc4cc(OCc5cc(OCc6cn(CCCO[C@@H]7O[C@H](C(=O)O)[C@@H](O)[C@H](O)[C@H]7O)nn6)cc(OCc6cn(CCCO[C@@H]7O[C@H](C(=O)O)[C@@H](O)[C@H](O)[C@H]7O)nn6)c5)cc(OCc5cc(OCc6cn(CCCO[C@@H]7O[C@H](C(=O)O)[C@@H](O)[C@H](O)[C@H]7O)nn6)cc(OCc6cn(CCCO[C@@H]7O[C@H](C(=O)O)[C@@H](O)[C@H](O)[C@H]7O)nn6)c5)c4)cc(OCc4cn(CCCO[C@@H]5O[C@H](C(=O)O)[C@@H](O)[C@H](O)[C@H]5O)nn4)c3)nn2)[C@H](O)[C@@H](O)[C@@H]1O [4d],0.3,,,
O=C(O)[C@H]1O[C@@H](OCCCn2cc(COc3cc(COCC(COCc4cc(OCc5cn(CCCO[C@@H]6O[C@H](C(=O)O)[C@@H](O)[C@H](O)[C@H]6O)nn5)cc(OCc5cn(CCCO[C@@H]6O[C@H](C(=O)O)[C@@H](O)[C@H](O)[C@H]6O)nn5)c4)(COCc4cc(OCc5cn(CCCO[C@@H]6O[C@H](C(=O)O)[C@@H](O)[C@H](O)[C@H]6O)nn5)cc(OCc5cn(CCCO[C@@H]6O[C@H](C(=O)O)[C@@H](O)[C@H](O)[C@H]6O)nn5)c4)COCc4cc(OCc5cn(CCCO[C@@H]6O[C@H](C(=O)O)[C@@H](O)[C@H](O)[C@H]6O)nn5)cc(OCc5cn(CCCO[C@@H]6O[C@H](C(=O)O)[C@@H](O)[C@H](O)[C@H]6O)nn5)c4)cc(OCc4cn(CCCO[C@@H]5O[C@H](C(=O)O)[C@@H](O)[C@H](O)[C@H]5O)nn4)c3)nn2)[C@H](O)[C@@H](O)[C@@H]1O [12c],153,624,,
heparin [reference compound],,,8.6–11 fold,56
O=C(O)[C@H]1O[C@@H](OCCCn2cc(COc3cc(COCCN(CCOCc4cc(OCc5cn(CCCO[C@@H]6O[C@H](C(=O)O)[C@@H](O)[C@H](O)[C@H]6O)nn5)cc(OCc5cn(CCCO[C@@H]6O[C@H](C(=O)O)[C@@H](O)[C@H](O)[C@H]6O)nn5)c4)CCOCc4cc(OCc5cn(CCCO[C@@H]6O[C@H](C(=O)O)[C@@H](O)[C@H](O)[C@H]6O)nn5)cc(OCc5cn(CCCO[C@@H]6O[C@H](C(=O)O)[C@@H](O)[C@H](O)[C@H]6O)nn5)c4)cc(OCc4cn(CCCO[C@@H]5O[C@H](C(=O)O)[C@@H](O)[C@H](O)[C@H]5O)nn4)c3)nn2)[C@H](O)[C@@H](O)[C@@H]1O [12b],203.4,487,,
O=C(O)[C@H]1O[C@@H](OCCCn2cc(CN(Cc3cn(CCCO[C@@H]4O[C@H](C(=O)O)[C@@H](O)[C@H](O)[C@H]4O)nn3)Cc3cn(CCCO[C@@H]4O[C@H](C(=O)O)[C@@H](O)[C@H](O)[C@H]4O)nn3)nn2)[C@H](O)[C@@H](O)[C@@H]1O [12a],9.8,,,
O=C(O)[C@H]1O[C@@H](OCCCn2cc(COc3cc(COc4cc(COCc5cc(OCc6cc(OCc7cn(CCCO[C@@H]8O[C@H](C(=O)O)[C@@H](O)[C@H](O)[C@H]8O)nn7)cc(OCc7cn(CCCO[C@@H]8O[C@H](C(=O)O)[C@@H](O)[C@H](O)[C@H]8O)nn7)c6)cc(OCc6cc(OCc7cn(CCCO[C@@H]8O[C@H](C(=O)O)[C@@H](O)[C@H](O)[C@H]8O)nn7)cc(OCc7cn(CCCO[C@@H]8O[C@H](C(=O)O)[C@@H](O)[C@H](O)[C@H]8O)nn7)c6)c5)cc(OCc5cc(OCc6cn(CCCO[C@@H]7O[C@H](C(=O)O)[C@@H](O)[C@H](O)[C@H]7O)nn6)cc(OCc6cn(CCCO[C@@H]7O[C@H](C(=O)O)[C@@H](O)[C@H](O)[C@H]7O)nn6)c5)c4)cc(OCc4cn(CCCO[C@@H]5O[C@H](C(=O)O)[C@@H](O)[C@H](O)[C@H]5O)nn4)c3)nn2)[C@H](O)[C@@H](O)[C@@H]1O [9c],0.0,,,
O=C(O)[C@H]1O[C@@H](OCCCn2cc(COc3cc(COCc4cc(OCc5cn(CCCO[C@@H]6O[C@H](C(=O)O)[C@@H](O)[C@H](O)[C@H]6O)nn5)cc(OCc5cn(CCCO[C@@H]6O[C@H](C(=O)O)[C@@H](O)[C@H](O)[C@H]6O)nn5)c4)cc(OCc4cn(CCCO[C@@H]5O[C@H](C(=O)O)[C@@H](O)[C@H](O)[C@H]5O)nn4)c3)nn2)[C@H](O)[C@@H](O)[C@@H]1O [9a],5.0,,,

# Reference: article PMC10797590, “Exploring Rigid and Flexible Scaffolds to Develop Potent Glucuronic Acid Glycodendrimers for Dengue Virus Inhibition” (Bioconjugate Chemistry, 2023)
